This assay deals with cataracts in rats. In words: Prevention or retardation of cataracts in galactose-fed rats. The class given is in vivo, rat. As to conditions: 0.0025% in diet. As for the experimental part: The compounds to be tested were:
Test compound/diet mixtures were formulated as follows: […]
Similarly, the 0.01% level was designed to provide a drug concentration of 20 mg per kilogram per day.
All animals were fed the Purina Laboratory Chow and water, ad libitum for a two day acclimatization period. The indicated test compound/diet mixture then was introduced to all animals on Study Day 1 and the animals were maintained on this diet throughout thirty days of the study.
Sufficient amounts of test compound/diet mixture were maintained in the food hoppers to allow the animals to eat ad libitum. All aliquots of test compound/diet mixture added to the food hoopers were weighed and the weights, as well as day of addition, recorded.
Twelve animals were assigned to each treatment with each compound at the indicated percentage by total weight of feed. All eyes were examined with a handheld ophthalmoscope and/or penlight.

On to `O=C1NC(=O)C2(CCOc3ccc(F)cc32)N1` (single isomer, unassigned) [SARGES**, dspiro (6fluoro-chroman-4,4imidazolidine)-2',5dione, reference compound], for which the “time of suppression, time to vacuole formation” value came out at 20.8 days. Moreover, the “suppression of the formation of nuclear cataracts” value (30 days) was found to be 100%.

These data come from patent US4464385A, “Treatment of diabetic complications with hydantoins” (Alcon Laboratories, Inc., priority 1982, dated 1984).
